From US9428460B2, “N-[4-(quinolin-4-yloxy)cyclohexyl(methyl)](hetero)arylcarboxamides as androgen receptor antagonists, production and use thereof as medicinal products” (BAYER PHARMA AKTIENGESELLSCHAFT, priority 2012, dated 2016)

Legend:
[1] = target: human androgen receptor (full length, wild-type form) (Homo sapiens (Human), UniProt P10275); test: Transactivation assay for the wild-type androgen receptor (PC-3 cells, MMTV-luciferase reporter); assay type: cell-based; settings: in the presence of R1881, 16 hours
Text: For determining the androgen receptor-dependent transcription, a cellular assay system was used, consisting of PC-3 cells (Kaighn et al., Invest. Urol. 17: 16-23, 1979), which express the human androgen receptor stably and recombinantly (full length, wild-type form, see Swiss-Prot Acc. No. P10275, Entry Version 159, Sequence Version 2). In addition, these PC3 cells contain a stably integrated reporter gene plasmid, which is based on the commercially available plasmid pGL4.14 (#E6691, Promega Corporation, Madison, Wis., USA) and contains the luciferase gene from the American firefly (Photinus pyralis) under the control of the MMTV promoter (Cato et al., EMBO J. 6: 363-368, 1987). These cells were propagated in routine cell culture at 37° C. and 5% CO2 in a medium containing 90% RPMI 1640 (Invitrogen GmbH, Darmstadt, Germany), 100 U penicillin, 100 μg/ml streptomycin (Invitrogen), 4 mM L-glutamine (Invitrogen), 10% fetal calf serum (FCS Serum Gold, PAA Laboratories GmbH, Cölbe, Germany), 600 μg/ml Geneticin (G418-sulphate, Invitrogen) and 10 μg/ml puromycin (Sigma Aldrich GmbH, Germany).
For carrying out the transactivation assays, approx. 1000 cells per well were plated out in a 384-well cell culture plate in a medium that contained activated charcoal-treated calf serum (FCS Serum Gold, PAA Laboratories) at a concentration of 5% (v/v). The test substances were added in a concentration series from 5.12×10^−12 to 1×10^−5 M in the presence of […] R1881 (methyltrienolone). The test plates were incubated overnight at 37° C. and 5% CO2. After 16 hours, 15 μl of Steady Glo Lysis and Detection reagent (E2550, Promega Corporation, Madison, Wis., USA) was added per well and the luminescence was read in a Topcount Luminometer (PerkinElmer, Waltham, Mass., USA) for 4 seconds per well. The luminescence values obtained were normalized, wherein 100% corresponded to the effect of the unstimulated control (without R1881), and 0% corresponded to the effect of the stimulated control (R1881 plus DMSO instead of test substance). The IC50 value was determined by regression analysis based on a four-parameter equation (minimum, maximum, IC50, Hill coefficient; Y=Max+(Min−Max)/(1+(X/IC50)^Hill)).

LNCaP cells = test: Proliferation assay with LNCaP cells; assay type: cell-based; settings: Homo sapiens, 168 h, in the presence of 1×10^−10 M R1881, seven days, AlamarBlue, read-out: IC50 LNCaP cell proliferation
Method: LNCaP cells (Horoszewicz et al., in “Models for Prostate Cancer” (ed. G. P. Murphy), Alan R. Liss, New York 1981, p. 115-132; Horoszewicz et al., Cancer Res. 43: 1809-1818, 1983) were plated out at a density of 2000 cells per well of a 96-well cell culture plate in RMPI 1640 medium (F1275, Biochrom AG), which contained activated charcoal-treated calf serum (FCS Serum Gold, PAA Laboratories) at a concentration of 5% (v/v). Three days later the cells were treated with the test substances in concentrations from 1×10^−8 to 1×10^−10 M in the presence of 1×10^−10 M R1881. Cell proliferation was determined seven days later after incubation for 2 hours with AlamarBlue (DAL1100, Invitrogen) (Nakayama et al., J Immunol Methods, 204(2): 205-8, 1997). The fluorescence values obtained were normalized, wherein 100% corresponded to the effect of the unstimulated control (without R1881), and 0% corresponded to the effect of the stimulated control (R1881 plus DMSO instead of test substance). The IC50 value was determined by regression analysis based on a four-parameter equation (minimum, maximum, IC50, Hill coefficient; Y=Max+(Min−Max)/(1+(X/IC50)^Hill)).

Sequence of human androgen receptor (full length, wild-type form) (P10275 whole entry): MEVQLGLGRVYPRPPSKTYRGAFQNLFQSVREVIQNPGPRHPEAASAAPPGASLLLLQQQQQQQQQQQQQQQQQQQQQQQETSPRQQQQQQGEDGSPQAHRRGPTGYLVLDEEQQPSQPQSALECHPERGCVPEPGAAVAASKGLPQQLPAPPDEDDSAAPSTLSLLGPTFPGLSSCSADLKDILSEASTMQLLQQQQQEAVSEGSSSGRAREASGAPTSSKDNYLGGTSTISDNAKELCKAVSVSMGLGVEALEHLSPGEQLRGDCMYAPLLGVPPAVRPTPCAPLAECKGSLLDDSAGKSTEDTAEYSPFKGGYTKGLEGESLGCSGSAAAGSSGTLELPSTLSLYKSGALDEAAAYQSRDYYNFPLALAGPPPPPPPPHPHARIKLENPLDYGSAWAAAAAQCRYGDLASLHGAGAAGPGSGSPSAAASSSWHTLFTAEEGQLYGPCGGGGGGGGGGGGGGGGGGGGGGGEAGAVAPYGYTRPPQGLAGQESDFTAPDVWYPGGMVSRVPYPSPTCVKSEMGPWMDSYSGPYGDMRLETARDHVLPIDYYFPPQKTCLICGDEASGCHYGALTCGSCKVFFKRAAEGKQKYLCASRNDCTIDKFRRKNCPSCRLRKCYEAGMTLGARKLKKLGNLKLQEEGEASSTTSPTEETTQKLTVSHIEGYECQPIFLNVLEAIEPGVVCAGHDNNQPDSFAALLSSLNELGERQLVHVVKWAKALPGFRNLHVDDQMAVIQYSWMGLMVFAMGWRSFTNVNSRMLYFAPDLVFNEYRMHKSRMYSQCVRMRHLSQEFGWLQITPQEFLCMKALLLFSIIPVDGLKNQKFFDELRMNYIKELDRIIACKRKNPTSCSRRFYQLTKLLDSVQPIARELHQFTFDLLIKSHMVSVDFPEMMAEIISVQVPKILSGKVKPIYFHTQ

Compound	IC50 [1]	IC50 (LNCaP cells)
Cc1nocc1C(=O)NC[C@H]1CC[C@H](Oc2ccnc3c(F)cccc23)CC1 [Example 4, N-({trans-4-[(8-fluoroquinolin-4-yl)oxy]cyclohexyl}methyl)-3-methylisoxazole-4-carboxamide]	210 nM	250 nM
O=C(NC[C@H]1CC[C@H](Oc2ccnc3c(F)cccc23)CC1)c1cc[nH]n1 [Example 8, N-({trans-4-[(8-fluoroquinolin-4-yl)oxy]cyclohexyl}methyl)-1H-pyrazole-3-carboxamide]	420 nM	1120 nM
Cc1cc(C(=O)NC[C@H]2CC[C@H](Oc3ccnc4c(Br)cccc34)CC2)no1 [Example 20, N-({trans-4-[(8-bromoquinolin-4-yl)oxy]cyclohexyl}methyl)-5-methylisoxazole-3-carboxamide]	690 nM	
Cc1ccc(C(=O)N[C@H]2CC[C@H](Oc3ccnc4c(Br)cccc34)CC2)cc1F [Example 14, N-{trans-4-[(8-bromoquinolin-4-yl)oxy]cyclohexyl}-3-fluoro-4-methylbenzamide]	68 nM	
O=C(N[C@H]1CC[C@H](Oc2ccnc3c(Br)cccc23)CC1)c1ccc(F)cc1 [Example 17, N-{trans-4-[(8-bromoquinolin-4-yl)oxy]cyclohexyl}-4-fluorobenzamide]	477 nM	
O=C(NC[C@H]1CC[C@H](Oc2ccnc3c(F)cccc23)CC1)c1ccno1 [Example 5, N-({trans-4-[(8-fluoroquinolin-4-yl)oxy]cyclohexyl}methyl)-isoxazole-5-carboxamide]	460 nM	390 nM
O=C(N[C@H]1CC[C@H](Oc2ccnc3c(Br)cccc23)CC1)c1ccc(F)c(Cl)c1 [Example 18, N-{trans-4-[(8-bromoquinolin-4-yl)oxy]cyclohexyl}-3-chloro-4-fluorobenzamide]	190 nM	
O=C(N[C@H]1CC[C@H](Oc2ccnc3c(Br)cccc23)CC1)c1ccc(C(F)(F)F)c(F)c1 [Example 16, N-{trans-4-[(8-bromoquinolin-4-yl)oxy]cyclohexyl}-3-fluoro-4-(trifluoromethyl)benzamide]	463 nM	
O=C(NC[C@H]1CC[C@H](Oc2ccnc3c(F)cccc23)CC1)c1ccon1 [Example 6, N-({trans-4-[(8-fluoroquinolin-4-yl)oxy]cyclohexyl}methyl)isoxazole-3-carboxamide]	740 nM	21 nM
O=C(N[C@H]1CC[C@H](Oc2ccnc3c(Br)cccc23)CC1)c1cccc(F)c1 [Example 12, N-{trans-4-[(8-bromoquinolin-4-yl)oxy]cyclohexyl}-3-fluorobenzamide]	93 nM	
O=C(NC[C@H]1CC[C@H](Oc2ccnc3c(F)cccc23)CC1)c1ccc(F)cc1 [Example 1, N-({trans-4-[(8-fluoroquinolin-4-yl)oxy]cyclohexyl}methyl)-4-fluorobenzamide]	240 nM	170 nM
O=C(N[C@H]1CC[C@H](Oc2ccnc3ccccc23)CC1)c1ccc(F)c(F)c1 [Example 3, N-[trans-4-(4-quinolyloxy)cyclohexyl]-3,4-difluorobenzamide]	45 nM	99 nM
O=C(N[C@H]1CC[C@H](Oc2ccnc3c(Br)cccc23)CC1)c1ccc(F)c(F)c1 [Example 13, N-{trans-4-[(8-bromoquinolin-4-yl)oxy]cyclohexyl}-3,4-difluorobenzamide]	170 nM	
Cc1cc(C(=O)NC[C@H]2CC[C@H](Oc3ccnc4c(F)cccc34)CC2)no1 [Example 7, N-({trans-4-[(8-fluoroquinolin-4-yl)oxy]cyclohexyl}methyl)-5-methylisoxazole-3-carboxamide]	480 nM	97 nM
N#Cc1ccc(C(=O)N[C@H]2CC[C@H](Oc3ccnc4c(Br)cccc34)CC2)cc1 [Example 15, N-{trans-4-[(8-bromoquinolin-4-yl)oxy]cyclohexyl}-4-cyanobenzamide]	261 nM	190 nM
Cc1cc(C(=O)N[C@H]2CC[C@H](Oc3ccnc4c(Br)cccc34)CC2)no1 [Example 2, N-{trans-4-[(8-bromoquinolin-4-yl)oxy]cyclohexyl}-5-methylisoxazole-3-carboxamide]	20 nM	

More lines, now with the values ahead:

IC50 [1]	IC50 (LNCaP cells)	Compound
39 nM	30 nM	N#Cc1cccc2c(O[C@H]3CC[C@H](NC(=O)c4cc(F)cc(F)c4)CC3)ccnc12 [Example 30, N-{trans-4-[(8-cyanoquinolin-4-yl)oxy]cyclohexyl}-3,5-difluorobenzamide]
45 nM	51 nM	Cc1ccc(C(=O)N[C@H]2CC[C@H](Oc3ccnc4c(C#N)cccc34)CC2)cc1F [Example 28, N-{trans-4-[(8-cyanoquinolin-4-yl)oxy]cyclohexyl}-3-fluoro-4-methylbenzamide]
67 nM		N#Cc1cccc2c(O[C@H]3CC[C@H](NC(=O)c4ccc(F)c(Cl)c4)CC3)ccnc12 [Example 27, 3-chloro-N-{trans-4-[(8-cyanoquinolin-4-yl)oxy]cyclohexyl}-4-fluorobenzamide]
650 nM	560 nM	Cc1cc(C(=O)NC[C@H]2CC[C@H](Oc3ccnc4c(C#N)cccc34)CC2)no1 [Example 32, N-({trans-4-[(8-cyanoquinolin-4-yl)oxy]cyclohexyl}methyl)-5-methylisoxazole-3-carboxamide]
18 nM		Cc1cc(C(=O)N[C@H]2CC[C@H](Oc3ccnc4c(C#N)cccc34)CC2)no1 [Example 26, N-{trans-4-[(8-cyanoquinolin-4-yl)oxy]cyclohexyl}-5-methylisoxazole-3-carboxamide]
61 nM	29 nM	N#Cc1cccc2c(O[C@H]3CC[C@H](NC(=O)c4ccc(Cl)c(F)c4)CC3)ccnc12 [Example 29, 4-chloro-N-{trans-4-[(8-cyanoquinolin-4-yl)oxy]cyclohexyl}-3-fluorobenzamide]
330 nM	87 nM	N#Cc1ccc(C(=O)NC[C@H]2CC[C@H](Oc3ccnc4ccccc34)CC2)cc1 [Example 22, N-{[trans-4-(4-quinolyloxy)cyclohexyl]methyl}-4-cyanobenzamide]
630 nM		O=C(NC[C@H]1CC[C@H](Oc2ccnc3c(Br)cccc23)CC1)c1ccon1 [Example 21, N-({trans-4-[(8-bromoquinolin-4-yl)oxy]cyclohexyl}methyl)isoxazole-3-carboxamide]
140 nM	233 nM	N#Cc1cccc2c(O[C@H]3CC[C@H](NC(=O)c4ccc(F)cc4)CC3)ccnc12 [Example 25, N-{trans-4-[(8-cyanoquinolin-4-yl)oxy]cyclohexyl}-4-fluorobenzamide]
720 nM	730 nM	N#Cc1cccc2c(O[C@H]3CC[C@H](CNC(=O)c4ccon4)CC3)ccnc12 [Example 31, N-({trans-4-[(8-cyanoquinolin-4-yl)oxy]cyclohexyl}methyl)isoxazole-3-carboxamide]
